Measurements: US7781394B2 (Institut Pasteur, priority 2006, dated 2010)
Read-outs that look alike come from different tables or passages of the source.

Columns and labels:
Assay type in all cases: biochemical
[1] = molecular target: T1, RCL (Rattus norvegicus, UniProt O35820); experiment: Compounds tested as substrate or inhibitor of RCL enzyme activity (dGMP hydrolysis); details: for Ki: competitive for dGMP, double reciprocal plot; for substrate or inhibitor of the enzyme activity: versus dGMP as substrate
T1 construct: made in house; host or cells: E. coli Bli5 (BL21 (DE3) pDIA17); pET24dRcl (untagged) or pET28aRcl (His-tagged)
T1 sequence (O35820 1-163): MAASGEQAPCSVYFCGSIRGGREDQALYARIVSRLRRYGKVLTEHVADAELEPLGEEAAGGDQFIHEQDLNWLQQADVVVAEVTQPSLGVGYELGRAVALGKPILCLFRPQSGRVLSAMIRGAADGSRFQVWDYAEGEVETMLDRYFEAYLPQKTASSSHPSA
Procedure: The enzyme activity was determined either spectrophotometrically by following one of the reaction products, […] or deoxyribose 5-phosphate, or by HPLC separation and UV detection of the released nucleobase and the remaining substrate.
The initial velocity of the reaction was measured either at variable concentration of dGMP both in the absence and presence of inhibitors, or at fixed concentration of dGMP and variable concentrations of inhibitors allowing the testing of the nature of the inhibition.

[2] = molecular target: T2, His-RCL (deoxynucleoside 5′-monophosphate N-glycosidase) (Rattus norvegicus, UniProt O35820); experiment: Kinetic parameters of His-RCL (wild-type) with dNMP substrates, initial velocity measurements
T2 construct: made in house; host or cells: E. coli Bli5 (BL21 (DE3) pDIA17), plasmid pET28aRcl
T2 sequence (O35820 1-163): T1 sequence (O35820 1-163)
Procedure: The enzyme activity was determined either spectrophotometrically by following one of the reaction products, hypoxanthine or deoxyribose 5-phosphate, or by HPLC separation and UV detection of the released nucleobase and the remaining substrate. a) dIMP was used as a substrate and the hypoxanthine released oxidized to uric acid by xanthine oxidase. […] The decrease in absorbance at 340 nm was followed on a Amersham Biosciences Ultrospec 3100 pro spectrophotometer, using a millimolar absorbance coefficient of 6.22. […] Initial velocity experiments were carried out at variable concentrations of the six deoxynucleoside 5'-monophosphate: dAMP, dCMP, dGMP, dIMP, dTMP and dUMP (Table 1).

[3] = molecular target: T1, RCL; experiment: pH dependence of RCL activity at saturating substrate; details: for % of the maximal activity: pH 7.0; for % of the enzyme activity remained: pH 8.0; for pH optimum: saturating concentrations of substrate
Procedure: Catalytic properties of the recombinant proteins. […] 50% of the maximal activity was still observed at pH 7.0 in the case of dCMP while it was only 20% in the case of dGMP. In both cases at pH 8.0, only 10% of the enzyme activity remained. Several metals were tested for their ability to stimulate or inhibit the reaction: Ca^2+, Mg^2+, Zn^2+, Na^+, and K^+.

[4] = Table 3, additional substrates of His-RCL, in 1/s
[5] = Table 3, additional substrates of His-RCL, read-out: Km
[6] = Table 1, substrate of His-RCL, five concentrations
[7] = purine deoxynucleotides, read-out: Km of RCL
[8] = pyrimidine deoxynucleotides, read-out: Km of RCL

SMILES: CSc1nc(N)nc2c1ncn2[C@@H]1O[C@H](COP(=O)(O)O)[C@@H](O)[C@H]1O
- Ki [1]: 10 µM
- substrate or inhibitor of the enzyme activity [1]: competitive inhibitors

SMILES: Nc1nc2c(ncn2[C@H]2C[C@H](OP(=O)(O)O)[C@@H](CO)O2)c(=O)[nH]1 [2′-deoxyguanosine 3′-monophosphate]
- substrate or inhibitor of the enzyme activity [1]: neither a substrate nor an inhibitor

SMILES: COc1nc(N)nc2c1ncn2[C@H]1C[C@H](O)[C@@H](COP(=O)(O)O)O1 [06-methyl-dGMP]
- kcat [2, 4]: 0.033
- Km [2, 5]: 61 ± 16 µM

SMILES: NC1=NC(=O)C2=NC(=O)N([C@H]3C[C@H](O)[C@@H](COP(=O)(O)O)O3)C2=N1 [8-oxo-dGMP, 8-oxo-deoxyguanosine 5′-monophosphate]
- substrate or inhibitor of the enzyme activity [1]: neither a substrate nor an inhibitor

SMILES: Nc1nc2c(ncn2[C@@H]2O[C@H](COP(=O)(O)O)[C@@H](O)[C@H]2O)c(=O)[nH]1 [GMP]
- Ki [1]: 20 µM
- substrate or inhibitor of the enzyme activity [1]: competitive inhibitors

SMILES: CCNc1nc2c(ncn2[C@H]2C[C@H](O)[C@@H](COP(=O)(O)O)O2)c(=O)[nH]1 [N2-ethyl-dGMP]
- kcat [2, 4]: 0.0528
- Km [2, 5]: 71 ± 8 µM

SMILES: C[n+]1cn([C@H]2C[C@H](O)[C@@H](COP(=O)(O)O)O2)c2nc(N)[nH]c(=O)c21 [N7-methyl-dGMP]
- kcat [2, 4]: 2.376
- Km [2, 5]: 470 ± 68 µM

SMILES: Nc1ncnc2c1ncn2[C@H]1C[C@H](O)[C@@H](COP(=O)(O)O)O1 [dAMP]
- kcat [2, 6]: 0.0066 s⁻¹
- Km [2, 7]: 250 µM

SMILES: Nc1ccn([C@H]2C[C@H](O)[C@@H](COP(=O)(O)O)O2)c(=O)n1 [dCMP]
- kcat [2, 6]: 0.0231 s⁻¹
- Km [2, 8]: 4000 µM
- % of the maximal activity [3]: 50%
- % of the enzyme activity remained [3]: 10%
- pH optimum [3]: ~6.0 pH

SMILES: Nc1nc2c(ncn2[C@H]2C[C@H](O)[C@@H](COP(=O)(O)O)O2)c(=O)[nH]1 [dGMP]
- Vmax [2]: 0.09 U. mg^−1
- kcat [2, 6]: 0.0297 s⁻¹
- kcat ([2]; Table 2, Wt His-RCL, dGMP 250 μM to 20 mM): 0.0298 s⁻¹
- kcat [2, 4]: 0.033
- Km [2, 5]: 77 ± 20 µM
- kcat ([2]; corresponds to Vmax): 0.0268 s⁻¹
- times more efficiently cleaved than dAMP ([2]; kcat/Km comparison): 20 times
- times more efficiently cleaved than dIMP ([2]; kcat/Km comparison): 40 times
- Km [2, 7]: 50 µM
- % of the maximal activity [3]: 20%
- % of the enzyme activity remained [3]: 10%
- pH optimum [3]: ~6.0 pH

SMILES: Cc1cn([C@H]2C[C@H](O)[C@@H](COP(=O)(O)O)O2)c(=O)[nH]c1=O [dTMP]
- Km [2, 8]: > 50000 µM

SMILES: O=c1ccn([C@H]2C[C@H](O)[C@@H](COP(=O)(O)O)O2)c(=O)[nH]1 [dUMP]
- kcat [2, 6]: 0.158 s⁻¹
- Km [2, 8]: 15000 µM
